Measurements: patent US10105357B2, “Indication of antibiotic drugs for preparation of cancer inhibition pharmaceutical composition” (LAUNX BIOMEDICAL CO., LTD., priority 2014, dated 2018)
Where two headings read alike, the source gives them in different places.

Legend:
Assay type in all cases: cell-based, human
cancer cell lines = assay: Cell viability analysis (WST-1) on cancer cell lines; details: drug 10 μM, 72 hours, WST-1; Table 3
[1] = test system: A375 (Amelanotic Melanoma); assay: Cell viability analysis, skin cancer A375; details: Homo sapiens, A-375, 72 h
[2] = test system: LoVo (Colorectal Adenocarcinoma); assay: Cell viability analysis, colon cancer LoVo; details: Homo sapiens, LoVo, 72 h, read-out: cell viability (survival rate), LoVo, drug 10 μM, 72 hours, WST-1, OD450 nm
[3] = test system: TSGH-8301 (Urinary Bladder Carcinoma); assay: Cell viability analysis, bladder cancer TSGH-8301; details: Homo sapiens, 72 h
[4] = test system: A549 (Lung Adenocarcinoma); assay: Cell viability analysis, lung cancer A549; details: Homo sapiens, A549, 72 h
[5] = test system: HL-60 (Acute Promyelocytic Leukemia); assay: Cell viability analysis, leukemia HL-60; details: Homo sapiens, HL-60, 72 h
[6] = test system: MCF7 (Mammary Gland, Adenocarcinoma); assay: Cell viability analysis, breast cancer MCF7; details: Homo sapiens, MCF7, 72 h
[7] = test system: HI650 (Lung Adenocarcinoma); assay: Cell viability analysis, lung cancer HI650; details: Homo sapiens, NCI-H1650, 72 h
[8] = test system: MKN-45 (Gastric Adenocarcinoma); assay: Cell viability analysis, gastric cancer MKN-45; details: Homo sapiens, MKN-45, 72 h
[9] = test system: HepG2 (Hepatocellular Carcinoma); assay: Cell viability analysis, hepatic cancer HepG2; details: Homo sapiens, HepG2, 72 h
[10] = test system: HeLa (Cervix Adenocarcinoma); assay: Cell viability analysis, cervical cancer HeLa; details: Homo sapiens, HeLa, 72 h
[11] = test system: PC3 (p53−) (Prostate Adenocarcinoma); assay: Cell viability analysis, prostate cancer PC3; details: Homo sapiens, 72 h
[12] = test system: AGS (Gastric Adenocarcinoma); assay: Cell viability analysis, gastric cancer AGS; details: Homo sapiens, 72 h
[13] = read-out: cell viability (survival rate), A375, drug 10 μM, 72 hours, WST-1, OD450 nm
[14] = read-out: cell viability (survival rate), TSGH, drug 10 μM, 72 hours, WST-1, OD450 nm
[15] = read-out: cell viability (survival rate), A549, drug 10 μM, 72 hours, WST-1, OD450 nm
[16] = read-out: cell viability (survival rate), HL-60, drug 10 μM, 72 hours, WST-1, OD450 nm
[17] = read-out: cell viability (survival rate), MCF7, drug 10 μM, 72 hours, WST-1, OD450 nm
[18] = read-out: cell viability (survival rate), H1650, drug 10 μM, 72 hours, WST-1, OD450 nm
[19] = read-out: cell viability (survival rate), MKN-45, drug 10 μM, 72 hours, WST-1, OD450 nm
[20] = read-out: cell viability (survival rate), HepG2, drug 10 μM, 72 hours, WST-1, OD450 nm
[21] = read-out: cell viability (survival rate), HeLa, drug 10 μM, 72 hours, WST-1, OD450 nm
[22] = read-out: cell viability (survival rate), PC3, drug 10 μM, 72 hours, WST-1, OD450 nm
[23] = read-out: cell viability (survival rate), AGS, drug 10 μM, 72 hours, WST-1, OD450 nm
[24] = drug 10 μM, 72 hours, WST-1, OD450 nm, read-out: cell viability (survival rate), A375
[25] = drug 10 μM, 72 hours, WST-1, OD450 nm, read-out: cell viability (survival rate), TSGH
[26] = drug 10 μM, 72 hours, WST-1, OD450 nm, read-out: cell viability (survival rate), A549
[27] = drug 10 μM, 72 hours, WST-1, OD450 nm, read-out: cell viability (survival rate), HL-60
[28] = drug 10 μM, 72 hours, WST-1, OD450 nm, read-out: cell viability (survival rate), MCF7
[29] = drug 10 μM, 72 hours, WST-1, OD450 nm, read-out: cell viability (survival rate), H1650
[30] = drug 10 μM, 72 hours, WST-1, OD450 nm, read-out: cell viability (survival rate), MKN-45
[31] = drug 10 μM, 72 hours, WST-1, OD450 nm, read-out: cell viability (survival rate), HepG2
[32] = drug 10 μM, 72 hours, WST-1, OD450 nm, read-out: cell viability (survival rate), HeLa
[33] = drug 10 μM, 72 hours, WST-1, OD450 nm, read-out: cell viability (survival rate), PC3
[34] = drug 10 μM, 72 hours, WST-1, OD450 nm, read-out: cell viability (survival rate), AGS

Row | Structure (SMILES) | inhibition effect on different cancer cell lines (cancer cell lines) | viability at 10 µM [1, 13] | viability at 10 µM [2] | viability at 10 µM [3, 14] | viability at 10 µM [4, 15] | viability at 10 µM [5, 16] | viability at 10 µM [6, 17] | viability at 10 µM [7, 18] | viability at 10 µM [8, 19] | viability at 10 µM [9, 20] | viability at 10 µM [10, 21] | viability at 10 µM [11, 22] | viability at 10 µM [12, 23] | viability at 10 µM [1, 24] | viability at 10 µM [3, 25] | viability at 10 µM [4, 26] | viability at 10 µM [5, 27] | viability at 10 µM [6, 28] | viability at 10 µM [7, 29] | viability at 10 µM [8, 30] | further results
1 | C[C@@H]1C/C=C/C=C/C=C/C=C/[C@H](O[C@@H]2O[C@H](C)[C@@H](O)[C@H](N)[C@@H]2O)C[C@@H]2O[C@](O)(C[C@@H](O)C[C@H]3O[C@@H]3/C=C/C(=O)O1)C[C@H](O)[C@H]2C(=O)O [Natamycin (Pimaricin), Natamycin] | significant inhibition effect | 82.1% | 84.8% | 84.9% | 62.6% | 107% | 83.2% | 57% | 67.1% | 95.3% | 93.5% | 70% | 40.9% |  |  |  |  |  |  |  | 
2 | CCCNC(=O)NS(=O)(=O)c1ccc(Cl)cc1 [Chlorpropamide] | significant inhibition effect |  | 59.3% |  |  |  |  |  |  |  |  |  |  | 62.1% | 59.1% | 36.9% | 96.7% | 32.5% | 55.8% | 42.7% | viability at 10 µM [9, 31]: 92.5%; viability at 10 µM [10, 32]: 59.9%; viability at 10 µM [11, 33]: 44.4%; viability at 10 µM [12, 34]: 51.2%
3 | CCn1cc(C(=O)O)c(=O)c2cc(F)c(N3CCNCC3)nc21 [Enoxacin (Penetrex), Enoxacin] | significant inhibition effect |  | 83.8% |  |  |  |  |  |  |  |  |  |  | 66.9% | 90.4% | 45.8% | 108% | 44.5% | 92.3% | 54.3% | viability at 10 µM [9, 31]: 88.1%; viability at 10 µM [10, 32]: 68.5%; viability at 10 µM [11, 33]: 112%; viability at 10 µM [12, 34]: 111%
4 | CC(=O)N1CCN(c2ccc(OCC3COC(Cn4ccnc4)(c4ccc(Cl)cc4Cl)O3)cc2)CC1 (stereo not drawn) [Ketoconazole] | significant inhibition effect | 49.2% | 90.3% | 107% | 75.7% | 88.3% | 118% | 46.1% | 77% | 88.7% | 84.3% | 80.1% | 65.7% |  |  |  |  |  |  |  | 
5 | CC(C)(C)c1nc(-c2cccc(NS(=O)(=O)c3c(F)cccc3F)c2F)c(-c2ccnc(N)n2)s1 [Dabrafenib (GSK2118436), Dabrafenib] | significant inhibition effect |  | 70.5% |  |  |  |  |  |  |  |  |  |  | 42.1% | 90.5% | 134% | 72.9% | 94.1% | 73.6% | 98.7% | viability at 10 µM [9, 31]: 91.3%; viability at 10 µM [10, 32]: 78.5%; viability at 10 µM [11, 33]: 100%; viability at 10 µM [12, 34]: 90.1%
6 | COc1ccc(O)cc1 [Mequinol] | significant inhibition effect | 63.8% | 85.2% | 97% | 118% | 112% | 74.4% | 67.5% | 103% | 95.6% | 87.1% | 68% | 57.2% |  |  |  |  |  |  |  | 
